For six compounds, IC50 and inhibition results are on record in article PMC11081523, “An ensemble machine learning model generates a focused screening library for the identification of CDK8 inhibitors” (Protein Science : A Publication of the Protein Society, 2024).

The target in this experiment is CDK8 (Homo sapiens, UniProt P49336). The experiment is described as follows: LanthaScreen kinase activity assay (Thermo Fisher SelectScreen kinase profiling service). The class given is biochemical. The conditions noted are these: for IC50: CDK8, dose-response at 10,000, 3000, 1000, 300 and 100 nM; for inhibition at 10 µM: CDK8 inhibition, compounds tested at 10 μM, read-out: Inhibitory activity (10 μM). The protocol:
Selected compounds were tested using the Thermo Fisher Scientific SelectScreen kinase profiling service (www.thermofisher.com/selectscreen). The LanthaScreen kinase activity assay was used. In short, a reaction between fluorescein‐labeled substrate and ATP is performed in a container. The reaction is ceased with the addition of EDTA. A terbium‐labeled antibody is added to detect phosphorylated fluorescein‐labeled substrate. A ratio between the acceptor and donor signal is an indicator of the amount of phosphorylated substrate present in the reaction, thereby indicating kinase activity.
In general terms: TR-FRET usually uses a lanthanide donor and a delayed reading to cut background.

Broadly, the IC50 is the midpoint of a concentration-inhibition curve. Lower therefore signals higher potency.

Chain of CDK8 (P49336 whole entry): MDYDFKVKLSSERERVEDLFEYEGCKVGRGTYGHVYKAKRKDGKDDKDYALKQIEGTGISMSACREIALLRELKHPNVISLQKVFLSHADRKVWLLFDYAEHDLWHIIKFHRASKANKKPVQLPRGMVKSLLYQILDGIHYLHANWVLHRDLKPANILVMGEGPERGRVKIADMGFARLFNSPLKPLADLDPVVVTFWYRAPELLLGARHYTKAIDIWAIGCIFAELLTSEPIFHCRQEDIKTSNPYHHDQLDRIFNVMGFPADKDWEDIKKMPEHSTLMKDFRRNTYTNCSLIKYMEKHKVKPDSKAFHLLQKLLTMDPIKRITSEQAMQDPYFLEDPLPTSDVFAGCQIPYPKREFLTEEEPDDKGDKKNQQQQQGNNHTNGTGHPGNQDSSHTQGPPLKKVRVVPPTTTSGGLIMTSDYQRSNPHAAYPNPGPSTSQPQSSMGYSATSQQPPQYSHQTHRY
Chain of CDK8 (P24863 whole entry partner): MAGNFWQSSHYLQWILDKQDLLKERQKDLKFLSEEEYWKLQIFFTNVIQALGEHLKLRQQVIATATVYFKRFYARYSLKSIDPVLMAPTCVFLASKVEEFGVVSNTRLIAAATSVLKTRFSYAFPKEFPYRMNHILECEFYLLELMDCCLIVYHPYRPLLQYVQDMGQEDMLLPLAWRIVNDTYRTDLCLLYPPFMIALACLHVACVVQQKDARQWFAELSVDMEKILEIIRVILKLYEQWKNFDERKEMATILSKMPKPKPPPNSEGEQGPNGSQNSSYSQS

On to `CCc1cc2c(N3CCCC(C(=O)N4CCN(c5ccc(F)cc5)CC4)C3)ncnc2s1` (stereo not drawn) [G887‐0711], for which inhibition was half-maximal at 1160 nM (IC50) and the inhibition at 10 µM was above 90%.

In the case of `COc1ccc2ncc(C#N)c(N3CCC(C(=O)Nc4ccc(F)c(C)c4)CC3)c2c1` [L483‐0192], the IC50 was determined as 1840 nM and the inhibition at 10 µM is 71%.

For the compound `CC1CCN(C(=O)c2ccc3ncnc(N4CCCCC4)c3c2)CC1` [M628‐0340], the half-maximal inhibitory concentration (IC50) was determined as 1920 nM and the inhibition at 10 µM turned out to be 77%.

For `CCn1cc(-c2ccncc2)cc1C(=O)N1CCN(c2ccc(Cl)cc2)CC1` [P076‐1220], inhibition was half-maximal at 4440 nM (IC50) and the inhibition at 10 µM stood at 71%.

With `CCCn1cc(-c2ccncc2)cc1C(=O)N1CCC(C)CC1` [P076‐1448], the IC50 came out at 2260 nM and the inhibition at 10 µM amounted to 73%.

Regarding `Cc1ccc(NC(=O)Nc2cnn(-c3ncncc3N3CCOCC3)c2)cc1C` [T479‐0984], the 50% inhibitory concentration (IC50) amounted to 99.9 nM and the inhibition at 10 µM is above 90%.
